Measured values: patent US8574563B2 (Bristol-Myers Squibb Company, priority 2006, dated 2013)

Test system: HCV 1b-377-neo replicon cells
Assay: HCV replicon assay, HCV 1b-377-neo replicon cells (1b FRET)
Type: cell-based, Hepatitis C virus genotype 1b
Conditions: HCV 1b-377-neo replicon cells, HCV 1b genotype; for EC50: Hepatitis C virus, read-out: EC50 range against HCV 1b (Table 2, Range)
Method in brief: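 Compounds tested in HCV genotype 1b-377-neo replicon cells with a FRET read-out. Cells resistant to a reference NS5A inhibitor through a Y2065H NS5A mutation were run alongside wild-type cells.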

| Compound | EC50 [nM] | EC50 range against HCV 1b (Table 2, Range) |
| --- | --- | --- |
| O=C(O)c1nc([C@@H]2CCCN2C(=O)[C@@H](c2ccccc2)N2CCCCC2)[nH]c1-c1ccc(-c2ccc(-c3cnc([C@@H]4CCCN4C(=O)[C@@H](c4ccccc4)N4CCCCC4)[nH]3)cc2)cc1 [Example J31, 2-((2S)-1-((2R)-2-phenyl-2-(1-piperidinyl)acetyl)-2-pyrrolidinyl)-5-(4′-(2-((2S)-1-((2R)-2-phenyl-2-(1-piperidinyl)acetyl)-2-pyrrolidinyl)-1H-imidazol-5-yl)-4-biphenylyl)-1H-imidazole-4-carboxylic acid] | 0.001 to 0.999 |  |
| COC(=O)N[C@@H](C(=O)N1CCC[C@H]1c1ncc(-c2ccc(-c3ccc(-c4[nH]c([C@@H]5CCCN5C(=O)[C@H](NC(=O)OC)c5ccccc5)nc4C(F)(F)F)cc3)cc2)[nH]1)c1ccccc1 [Example J37, methyl ((1R)-2-((2S)-2-(5-(4′-(2-((2S)-1-((2R)-2-((methoxycarbonyl)amino)-2-phenylacetyl)-2-pyrrolidinyl)-1H-imidazol-5-yl)-4-biphenylyl)-4-(trifluoromethyl)-1H-imidazol-2-yl)-1-pyrrolidinyl)-2-oxo-1-phenylethyl)carbamate] | 0.001 to 0.999 |  |
| COC(=O)N[C@@H](C)C(=O)N1CCC[C@H]1c1ncc(-c2ccc(-c3ccc(-c4[nH]c([C@@H]5CCCN5C(=O)[C@H](C)NC(=O)OC)nc4C(F)(F)F)cc3)cc2)[nH]1 [Example J38, methyl ((1S)-2-((2S)-2-(5-(4′-(2-((2S)-1-(N-(methoxycarbonyl)-L-alanyl)-2-pyrrolidinyl)-4-(trifluoromethyl)-1H-imidazol-5-yl)-4-biphenylyl)-1H-imidazol-2-yl)-1-pyrrolidinyl)-1-methyl-2-oxoethyl)carbamate] | 0.001 to 0.999 |  |
| COC(=O)N[C@H](C(=O)N1CCC[C@H]1c1ncc(-c2ccc(-c3ccc(-c4[nH]c([C@@H]5CCCN5C(=O)[C@@H](NC(=O)OC)C(C)C)nc4C(F)(F)F)cc3)cc2)[nH]1)C(C)C [Example J39, methyl ((1S)-1-(((2S)-2-(5-(4′-(2-((2S)-1-((2S)-2-((methoxycarbonyl)amino)-3-methylbutanoyl)-2-pyrrolidinyl)-1H-imidazol-5-yl)-4-biphenylyl)-4-(trifluoromethyl)-1H-imidazol-2-yl)-1-pyrrolidinyl)carbonyl)-2-methylpropyl)carbamate] | 0.001 to 0.999 |  |
| CCN(CC)[C@@H](C(=O)N1CCC[C@H]1c1ncc(-c2ccc(-c3ccc(-c4[nH]c([C@@H]5CCCN5C(=O)[C@@H](c5ccccc5)N(CC)CC)nc4C(F)(F)F)cc3)cc2)[nH]1)c1ccccc1 [Example J40] | 0.001 to 0.999 |  |
| COC(=O)N[C@H](C(=O)N1CCC[C@H]1c1ncc(-c2ccc(-c3ccc(-c4[nH]c([C@@H]5CCCN5C(=O)[C@@H](NC(=O)OC)C5CC5)nc4C(F)(F)F)cc3)cc2)[nH]1)C1CC1 [Example J41, methyl ((1S)-1-cyclopropyl-2-((2S)-2-(5-(4′-(2-((2S)-1-((2S)-2-cyclopropyl-2-((methoxycarbonyl)amino)acetyl)-2-pyrrolidinyl)-1H-imidazol-5-yl)-4-biphenylyl)-4-(trifluoromethyl)-1H-imidazol-2-yl)-1-pyrrolidinyl)-2-oxoethyl)carbamate] | 0.001 to 0.999 |  |
| COC(=O)N[C@H](C(=O)N1CCC[C@H]1c1ncc(-c2ccc(-c3ccc(-c4[nH]c([C@@H]5CCCN5C(=O)[C@@H](NC(=O)OC)[C@@H](C)OC)nc4C(F)(F)F)cc3)cc2)[nH]1)[C@@H](C)OC [Example J42, methyl ((1S,2R)-2-methoxy-1-(((2S)-2-(5-(4′-(2-((2S)-1-(N-(methoxycarbonyl)-O-methyl-L-threonyl)-2-pyrrolidinyl)-4-(trifluoromethyl)-1H-imidazol-5-yl)-4-biphenylyl)-1H-imidazol-2-yl)-1-pyrrolidinyl)carbonyl)propyl)carbamate] | 0.001 to 0.999 |  |
| COC(=O)N[C@@H](C)C(=O)N(C)[C@@H](C)c1ncc(-c2ccc(-c3ccc(-c4[nH]c([C@@H]5CCCN5C(=O)[C@H](C)NC(=O)OC)nc4C(F)(F)F)cc3)cc2)[nH]1 [Example J42.a, methyl ((1S)-2-((2S)-2-(5-(4′-(2-((1S)-1-((N-(methoxycarbonyl)-L-alanyl)(methyl)amino)ethyl)-1H-imidazol-5-yl)-4-biphenylyl)-4-(trifluoromethyl)-1H-imidazol-2-yl)-1-pyrrolidinyl)-1-methyl-2-oxoethyl)carbamate] | 0.001 to 0.999 |  |
| CCN(CC)[C@@H](C(=O)N1CCC[C@H]1c1ncc(-c2ccc(-c3ccc(-c4[nH]c([C@@H]5CCCN5C(=O)[C@H](C)NC(=O)OC)nc4C(F)(F)F)cc3)cc2)[nH]1)c1ccccc1 [Example J45, methyl ((1S)-2-((2S)-2-(5-(4′-(2-((2S)-1-((2R)-2-(diethylamino)-2-phenylacetyl)-2-pyrrolidinyl)-1H-imidazol-5-yl)-4-biphenylyl)-4-(trifluoromethyl)-1H-imidazol-2-yl)-1-pyrrolidinyl)-1-methyl-2-oxoethyl)carbamate] | 0.001 to 0.999 |  |
| COC(=O)N[C@@H](C(=O)N1CCC[C@H]1c1ncc(-c2cnc(-c3ccc(-c4[nH]c([C@@H]5CCCN5C(=O)[C@H](NC(=O)OC)c5ccccc5)nc4C(F)(F)F)cc3)nc2)[nH]1)c1ccccc1 [Example J46, methyl ((1R)-2-((2S)-2-(5-(4-(5-(2-((2S)-1-((2R)-2-((methoxycarbonyl)amino)-2-phenylacetyl)-2-pyrrolidinyl)-1H-imidazol-5-yl)-2-pyrimidinyl)phenyl)-4-(trifluoromethyl)-1H-imidazol-2-yl)-1-pyrrolidinyl)-2-oxo-1-phenylethyl)carbamate] | 0.001 to 0.999 |  |
| CCN(CC)[C@@H](C(=O)N1CCC[C@H]1c1ncc(-c2cnc(-c3ccc(-c4[nH]c([C@@H]5CCCN5C(=O)[C@@H](c5ccccc5)N(CC)CC)nc4C(F)(F)F)cc3)nc2)[nH]1)c1ccccc1 [Example J47, (1R)-2-((2S)-2-(5-(4-(5-(2-((2S)-1-((2R)-2-(diethylamino)-2-phenylacetyl)-2-pyrrolidinyl)-1H-imidazol-5-yl)-2-pyrimidinyl)phenyl)-4-(trifluoromethyl)-1H-imidazol-2-yl)-1-pyrrolidinyl)-N,N-diethyl-2-oxo-1-phenylethanamine] | 0.001 to 0.999 |  |
| COC(=O)N[C@H](C(=O)N1CCC[C@H]1c1ncc(-c2cnc(-c3ccc(-c4[nH]c([C@@H]5CCCN5C(=O)[C@@H](NC(=O)OC)C(C)C)nc4C(F)(F)F)cc3)nc2)[nH]1)C(C)C [Example J48, methyl ((1S)-1-(((2S)-2-(5-(2-(4-(2-((2S)-1-((2S)-2-((methoxycarbonyl)amino)-3-methylbutanoyl)-2-pyrrolidinyl)-4-(trifluoromethyl)-1H-imidazol-5-yl)phenyl)-5-pyrimidinyl)-1H-imidazol-2-yl)-1-pyrrolidinyl)carbonyl)-2-methylpropyl)carbamate] | 0.001 to 0.999 |  |
| COC(=O)N[C@H](C(=O)N1CCC[C@H]1c1ncc(-c2cnc(-c3ccc(-c4[nH]c([C@@H]5CCCN5C(=O)[C@@H](NC(=O)OC)C5CC5)nc4C(F)(F)F)cc3)nc2)[nH]1)C1CC1 [Example J49, methyl ((1S)-1-cyclopropyl-2-((2S)-2-(5-(4-(5-(2-((2S)-1-((2S)-2-cyclopropyl-2-((methoxycarbonyl)amino)acetyl)-2-pyrrolidinyl)-1H-imidazol-5-yl)-2-pyrimidinyl)phenyl)-4-(trifluoromethyl)-1H-imidazol-2-yl)-l-pyrrolidinyl)-2-oxoethyl)carbamate] | 0.001 to 0.999 |  |
| COC(=O)N[C@@H](C)C(=O)N1CCC[C@H]1c1ncc(-c2cnc(-c3ccc(-c4[nH]c([C@@H]5CCCN5C(=O)[C@H](C)NC(=O)OC)nc4C(F)(F)F)cc3)nc2)[nH]1 [Example J50, methyl ((1S)-2-((2S)-2-(5-(4-(5-(2-((2S)-1-(N-(methoxycarbonyl)-L-alanyl)-2-pyrrolidinyl)-1H-imidazol-5-yl)-2-pyrimidinyl)phenyl)-4-(trifluoromethyl)-1H-imidazol-2-yl)-1-pyrrolidinyl)-1-methyl-2-oxoethyl)carbamate] | 0.001 to 0.999 |  |
| O=C(C(c1ccccc1)N1C2CCC1CC2)N1CCC[C@H]1c1ncc(-c2ccc(-c3ccc(-c4cnc([C@@H]5CCCN5C(=O)C(c5ccccc5)N5C6CCC5CC6)[nH]4)cc3)cc2)[nH]1 (stereo partly drawn) [Example M1, 7,7′-(4,4′-biphenyldiylbis(1H-imidazole-5,2-diyl(2S)-2,1-pyrrolidinediyl(2-oxo-1-phenyl-2,1-ethanediyl)))bis(7-azabicyclo[2.2.1]heptane)] |  | >A |
| O=C(C(c1ccccc1)N1C2CCC1CC2)N1CCC[C@H]1c1ncc(-c2ccc(-c3ccc(-c4cnc([C@@H]5CCCN5C(=O)C(c5ccccc5)N5C6CCC5CC6)[nH]4)cc3)cc2)[nH]1 (stereo partly drawn) [Example M2, 7,7′-(4,4′-biphenyldiylbis(1H-imidazole-5,2-diyl(2S)-2,1-pyrrolidinediyl(2-oxo-1-phenyl-2,1-ethanediyl)))bis(7-azabicyclo[2.2.1]heptane)] | 1 to 99 |  |
| CCN(C1CC1)[C@@H](C(=O)N1CCC[C@H]1c1ncc(-c2ccc(-c3ccc(-c4cnc([C@@H]5CCCN5C(=O)[C@@H](c5ccccc5)N(CC)C5CC5)[nH]4)cc3)cc2)[nH]1)c1ccccc1 [Example M3, N,N′-(4,4′-biphenyldiylbis(1H-imidazole-5,2-diyl(2S)-2,1-pyrrolidinediyl((1R)-2-oxo-1-phenyl-2,1-ethanediyl)))bis(N-ethylcyclopropanamine)] | 1 to 99 |  |
| CCOC(=O)N[C@H](C)C(=O)N1CCC[C@H]1c1ncc(-c2ccc(-c3ccc(-c4cnc([C@@H]5CCCN5C(=O)[C@@H](C)NC(=O)OCC)[nH]4)cc3)cc2)[nH]1 [Example M4, ethyl ((1R)-2-((2S)-2-(5-(4′-(2-((2S)-1-(N-(ethoxycarbonyl)-D-alanyl)-2-pyrrolidinyl)-1H-imidazol-5-yl)-4-biphenylyl)-1H-imidazol-2-yl)-1-pyrrolidinyl)-1-methyl-2-oxoethyl)carbamate] | 100 to 999 |  |
